One test has as its target T1, M2 muscarinic receptor (Homo sapiens, UniProt P08172).
T1 construct: expressed in transfected cells
T1 sequence (P08172 1-466): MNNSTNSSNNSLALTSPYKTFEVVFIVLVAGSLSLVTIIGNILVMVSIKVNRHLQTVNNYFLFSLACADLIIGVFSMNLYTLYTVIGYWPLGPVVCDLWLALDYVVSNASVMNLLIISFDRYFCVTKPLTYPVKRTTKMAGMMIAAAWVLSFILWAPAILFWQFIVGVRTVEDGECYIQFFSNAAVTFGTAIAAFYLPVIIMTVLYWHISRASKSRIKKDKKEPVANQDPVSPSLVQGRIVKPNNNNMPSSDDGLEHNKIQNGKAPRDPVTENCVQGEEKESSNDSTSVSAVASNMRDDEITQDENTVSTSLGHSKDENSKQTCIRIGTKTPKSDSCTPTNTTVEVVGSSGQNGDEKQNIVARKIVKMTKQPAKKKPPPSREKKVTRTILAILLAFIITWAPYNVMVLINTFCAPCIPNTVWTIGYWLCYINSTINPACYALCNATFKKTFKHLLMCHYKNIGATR
Put plainly: Receptor Selection and Amplification (R-SAT) assay, cloned M2 receptor. Details: M2 Eff: scale not given here. It counts as cell-based. From the text: (§1) The EC50 for an agonist is intended to denote the concentration of a compound needed to achieve 50% of a maximal response seen in an in vitro assay such as R-SAT. For inverse agonists, EC50 is intended to denote the concentration of a compound needed to achieve 50% inhibition of an R-SAT response from basal, no compound, levels.
(§2) A particularly convenient functional assay system is the receptor selection and amplification assay (R-SAT assay) in U.S. Pat. No. 5,707,798, which describes a method of screening for bioactive compounds by utilizing the ability of cells transfected with receptor DNA, e.g., coding for the different muscarinic subtypes, to amplify in the presence of a ligand of the receptor. Cell amplification is detected as increased levels of a marker also expressed by the cells.
(§3) Receptor Selection and Amplification (R-SAT) assays were carried out using the cloned M1-M5 receptors essentially as described in: Brauner-Osborne H, Brann M R. Pharmacology of muscarinic acetylcholine receptor subtypes (m1-m5): high throughput assays in mammalian cells. Eur J Pharmacol Jan. 4, 1996;295(1):93-102, and Spalding T A, Trotter C, Skjaerbaek N, Messier T L, Currier E A, Burstein E S, Li D, Hacksell U, Brann M R. Discovery of an ectopic activation site on the M(1) muscarinic receptor. Mol Pharmacol. 2002 June;61(6):1297-302.

For another test, the target named is T2, M1 muscarinic receptor (Homo sapiens, UniProt P11229).
T2 construct: expressed in transfected cells
T2 sequence (P11229 1-460): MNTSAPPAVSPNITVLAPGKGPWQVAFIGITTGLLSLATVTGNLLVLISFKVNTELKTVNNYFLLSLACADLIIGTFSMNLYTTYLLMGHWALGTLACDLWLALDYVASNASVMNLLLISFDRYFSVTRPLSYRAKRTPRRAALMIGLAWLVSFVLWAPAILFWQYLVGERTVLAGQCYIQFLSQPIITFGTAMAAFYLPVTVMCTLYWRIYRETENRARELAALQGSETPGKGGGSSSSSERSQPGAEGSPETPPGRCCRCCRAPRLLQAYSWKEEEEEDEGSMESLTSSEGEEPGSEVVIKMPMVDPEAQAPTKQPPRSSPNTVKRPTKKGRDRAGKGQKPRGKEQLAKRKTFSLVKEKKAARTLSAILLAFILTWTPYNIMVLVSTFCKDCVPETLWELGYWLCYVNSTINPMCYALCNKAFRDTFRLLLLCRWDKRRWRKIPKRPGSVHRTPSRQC
Put plainly: Receptor Selection and Amplification (R-SAT) assay, cloned M1 receptor. The conditions noted are these: for Emax: read-out: m1 % Efficacy. Also on record: M1 Eff: scale not given here. It counts as cell-based.
Text: as §1, §2, §3

Where [1] appears, read: R-SAT, second table (COMPOUND ID series).
Setting [2] is: R-SAT, second table (COMPOUND ID series), read-out: M2 pEC50 (converted).
[3] abbreviates: R-SAT, second table (COMPOUND ID series), read-out: M1 pEC50 (converted).
Where [4] appears, read: M1 pEC50, R-SAT, second table (COMPOUND ID series).
Where [5] appears, read: M2 pEC50, R-SAT, second table (COMPOUND ID series).
[6] abbreviates: R-SAT, cloned m1 receptor, read-out: m1 pEC50 (converted).
The mark [7] stands for this setting: m1 pEC50, R-SAT, cloned m1 receptor.

Each structure is given as a SMILES string. Read-outs that look alike come from different tables or passages of the source.

Regarding `O=C1COc2ccc(F)cc2N1CCCN1CCC(OCC2CC2)CC1` [Compound 00262635, 4-[3-(4-Cyclopropylmethoxypiperidin-1-yl)propyl]-6-fluoro-4H-benzo[1.4]oxazin-3-one], on M2 muscarinic receptor (setting [1]), the “M2 Eff” value came out at 53. Also, the EC50 is 794 nM on M2 muscarinic receptor (setting [2]) and 63.1 nM at M1 muscarinic receptor (setting [3]). Besides, the “M1 Eff” value on M1 muscarinic receptor (setting [1]) is recorded as 96.

The molecule `CC(CN1C(=O)COc2ccccc21)CN1C2CCC1CC(=CCOCC1CC1)C2` [Compound 00262357, 4-{(R,S)-3-[3-(2-Cyclopropylmethoxyethylidene)-8-aza-bicyclo[3.2.1]oct-8-yl]-2-methylpropyl}-4H-benzo[1.4]oxazin-3-one] showed an EC50 at M1 muscarinic receptor (setting [4]) of 12.6 nM. Moreover, at M1 muscarinic receptor (setting [1]), the “M1 Eff” value came out at 79.

In the case of `O=C1COc2cc(F)c(F)cc2N1CCCN1[C@@H]2CC[C@H]1C[C@@H](OCC1CC1)C2` [Compound 00262569, 4-[3-(3a-Cyclopropylmethoxy-8-azabicyclo[3.2.1]oct-8-yl)propyl]-6.7-difluoro-4H-benzo[1.4]oxazin-3-one], the EC50 is 50.1 nM on M2 muscarinic receptor (setting [5]) and 6.31 nM at M1 muscarinic receptor (setting [4]). In addition, the “M2 Eff” value on M2 muscarinic receptor (setting [1]) came to 42. Besides, the “M1 Eff” value at M1 muscarinic receptor (setting [1]) was 97.

On to `CCOCCC1CC2CCC(C1)N2CC(C)CN1C(=O)COc2ccccc21` (single isomer, unassigned) [Compound 00262993], for which, at M1 muscarinic receptor (setting [4]), the EC50 is 79.4 nM. Moreover, the “M1 Eff” value at M1 muscarinic receptor (setting [1]) is reported as 55.

Regarding `CCON=C1CC2CCC(C1)N2C[C@@H](C)CN1C(=O)COc2ccccc21` (single isomer, unassigned) [Compound 00261434], the EC50 is 2000 nM at M2 muscarinic receptor (setting [5]) and 631 nM on M1 muscarinic receptor (setting [4]). For the same molecule, at M2 muscarinic receptor (setting [1]), the “M2 Eff” value was 50. Moreover, the “M1 Eff” value on M1 muscarinic receptor (setting [1]) came to 110.

Consider `CCCCC1CCN(CCCN2C(=O)CCc3c2ccc(F)c3C)CC1` [Compound 107LH95-1, 1-[3-(4-Butyl-piperidin-1-yl)propyl]-6-fluoro-5-methyl-3,4-dihydro-1H-quinolin-2-one], for which, at M1 muscarinic receptor (R-SAT, cloned m1 receptor), the Emax stood at 103%. Besides, the EC50 on M1 muscarinic receptor (setting [6]) is 25.1 nM.

`CCOCC[C@@H]1C[C@H]2CC[C@@H](C1)N2C[C@H](C)CN1C(=O)COc2ccccc21` [Compound 00263034, (S)-4-{3-[3β-(2-Ethoxyethyl)-8-azabicyclo[3.2.1]oct-8-yl]-2-methylpropyl}-4H-benzo[1.4]oxazin-3-one] showed an EC50 at M1 muscarinic receptor (setting [4]) of 158 nM. The “M1 Eff” value at M1 muscarinic receptor (setting [1]) was found to be 68.

As for `CCCCC1CCN(CCCN2C(=O)COc3ccc(C(C)=O)cc32)CC1` [Compound 64LHY89-5, 6-Acetyl-4-[3-(4-butyl-piperidin-1-yl)-propyl]-4H-benzo[1,4]oxazin-3-one], the Emax at M1 muscarinic receptor (R-SAT, cloned m1 receptor) was 45%. For the same molecule, at M1 muscarinic receptor (setting [6]), the EC50 was 2510 nM.

As for `O=C1COc2cc(F)ccc2N1CCCN1[C@@H]2CC[C@H]1C[C@@H](OCC1CC1)C2` [Compound 00262571, 4-[3-(3a-Cyclopropylmethoxy-8-azabicyclo[3.2.1]oct-8-yl)propyl]-7-fluoro-4H-benzo[1.4]oxazin-3-one], the EC50 was 39.8 nM at M2 muscarinic receptor (setting [5]) and 12.6 nM on M1 muscarinic receptor (setting [4]). For the same molecule, the “M2 Eff” value at M2 muscarinic receptor (setting [1]) is on record as 45. Besides, the “M1 Eff” value at M1 muscarinic receptor (setting [1]) is on record as 81.

For `O=C1COc2cc(F)cc(F)c2N1CCCN1CCC(OCC2CC2)CC1` [Compound 00262471, 4-[3-(4-Cyclopropylmethoxypiperidin-1-yl)propyl]-5,7-difluoro-4H-benzo[1,4]oxazin-3-one], the “M1 Eff” value on M1 muscarinic receptor (setting [1]) came to 86. Further, the EC50 at M1 muscarinic receptor (setting [3]) was 794 nM.

In turn, `CCCCCC1CC2CC[C@@H](C1)N2C[C@@H](C)CN1C(=O)COc2cc(F)ccc21` (stereo partly drawn) [Compound 112KK20-c5, (R,S)-7-Fluoro-4-[2-methyl-3-(3-pentyl-8-azabicyclo[3.2.1]oct-8-yl)propyl]-4H-benzo[1,4]oxazin-3-one] had an EC50 on M1 muscarinic receptor (setting [7]) of 5.01 nM. Moreover, the Emax at M1 muscarinic receptor was 117%.

On to `COC(CN1CCC(OCC2CC2)CC1)CN1C(=O)COc2cc(F)ccc21` (racemic) [Compound 00262784, (R,S)-4-[3-(4-Cyclopropylmethoxypiperidin-1-yl)-2-methoxypropyl]-7-fluoro-4H-benzo[1.4]oxazin-3-one], for which the “M2 Eff” value on M2 muscarinic receptor (setting [1]) is 71. The figures for the EC50 on M2 muscarinic receptor (setting [2]) and on M1 muscarinic receptor (setting [3]) were 2000 nM and 79.4 nM, respectively. At M1 muscarinic receptor (setting [1]), the “M1 Eff” value amounted to 94.

With `CCCC=C1CCN(C[C@@H](C)CN2C(=O)COc3ccc(OC)cc32)CC1` (racemic) [Compound 107LH74-3D, (R,S)-4-[3-(4-Butylidenepiperidin-1-yl)-2-methylpropyl]-6-methoxy-4H-benzo[1,4]oxazin-3-one], on M1 muscarinic receptor (R-SAT, cloned m1 receptor), the “m1 % Efficacy” value is 97% and the “m1 pEC50” value amounted to 8.0.

In the case of `CCCC=C1CC2CCC(C1)N2CCCN1C(=O)COc2ccccc21` [Compound 81MF24, 4-[3-(3-Butylidene-8-aza-bicyclo[3.2.1]oct-8-yl)-propyl]-4H-benzo[1,4]oxazin-3-one], the EC50 at M2 muscarinic receptor (m2 pEC50, R-SAT, cloned m2 receptor) was 100 nM; on M1 muscarinic receptor (setting [7]), 15.8 nM. Further, the Emax on M2 muscarinic receptor (read-out: m2 % Efficacy) was 70%; on M1 muscarinic receptor it was 96%.

Regarding `O=C1COc2c(F)cc(F)cc2N1CCCN1CCC(OCC2CC2)CC1` [Compound 00262874], the “M1 Eff” value on M1 muscarinic receptor (setting [1]) came to 87. The EC50 on M1 muscarinic receptor (setting [3]) is 631 nM.

Consider `O=C1COc2ccccc2N1CCCN1CCC(OCC2CC2)CC1` [Compound 00262922, 4-[3-(4-Cyclopropylmethoxypiperidin-1-yl)propyl]-4H-benzo[1.4]oxazin-3-one], for which the “M2 Eff” value on M2 muscarinic receptor (setting [1]) is listed as 40. Moreover, the EC50 on M2 muscarinic receptor (setting [2]) is 1260 nM; on M1 muscarinic receptor (setting [3]), 79.4 nM. Further, the “M1 Eff” value at M1 muscarinic receptor (setting [1]) is given as 84.

As for `CC(CN1CCC(OC(=O)OCC2CCC2)CC1)CN1C(=O)COc2ccccc21` (racemic) [Compound 00262198, carbonic acid cyclobutylmethyl ester 1-[(R,S)-2-methyl-3-(3-oxo-2,3-dihydrobenzo[1.4]oxazin-4-yl)propyl]piperidine-4-yl ester], the “M1 Eff” value on M1 muscarinic receptor (setting [1]) is given as 48. Moreover, on M1 muscarinic receptor (setting [3]), the EC50 is 3980 nM.

Molecule `COCC[C@H]1C[C@H]2CC[C@@H](C1)N2C[C@H](C)CN1C(=O)COc2ccccc21` [Compound 00263035, (S)-4-{3-[3a-(2-Methoxyethyl)-8-azabicyclo[3.2.1]oct-8-yl]-2-methylpropyl}-4H-benzo[1.4]oxazin-3-one] had an EC50 on M1 muscarinic receptor (setting [4]) of 251 nM. For the same molecule, the “M1 Eff” value on M1 muscarinic receptor (setting [1]) was 97.

Consider `CCCCC1CCN(CCCN2CCCc3ccc(C(F)(F)F)cc32)CC1` [Compound 55LH54, 1-[3-(4-Butyl-piperidin-1-yl)-propyl]-7-trifluoromethyl-12.3.4-tetrahydro-quinoline], for which the Emax on M1 muscarinic receptor (R-SAT, cloned m1 receptor) stood at 57%. The EC50 at M1 muscarinic receptor (setting [6]) was 398 nM.

With `O=C1COc2ccc(F)c(F)c2N1CCCN1CCC(OCC2CC2)CC1` [Compound 00262696, 4-[3-(4-Cyclopropylmethoxypiperidin-1-yl)propyl]-5,6-difluoro-4H-benzo[1,4]oxazin-3-one], at M1 muscarinic receptor (setting [1]), the “M1 Eff” value is given as 83. Further, the EC50 at M1 muscarinic receptor (setting [3]) was 631 nM.

With `O=C1CCc2cc(F)c(F)cc2N1CCCN1C2CCC1CC(=CCOCC1CC1)C2` [Compound 00262356, 1-{3-[3-(2-Cyclopropylmethoxyethylidene)-8-azabicyclo[3.2.1]oct-8-yl]-propyl}-6,7-difluoro-3,4-dihydro-1H-quinolin-2-one], the EC50 at M1 muscarinic receptor (setting [4]) is 31.6 nM. At M1 muscarinic receptor (setting [1]), the “M1 Eff” value is listed as 46.

`O=C1COc2c(F)ccc(F)c2N1CCCN1CCC(OCC2CC2)CC1` [Compound 00262869, 4-[3-(4-Cyclopropylmethoxypiperidin-1-yl)propyl]-5,8-difluoro-4H-benzo[1,4]oxazin-3-one]: the “M1 Eff” value on M1 muscarinic receptor (setting [1]) is 32. Also, on M1 muscarinic receptor (setting [3]), the EC50 was 1580 nM.

(Values after US7550459B2, “Tetrahydroquinoline analogues as muscarinic agonists” (Acadia Pharmaceuticals, Inc., priority 2001, dated 2009).)
